Data published in ChEMBL document CHEMBL1153300, “Identification and SAR of novel diaminopyrimidines. Part 2: The discovery of RO-51, a potent and selective, dual P2X(3)/P2X(2/3) antagonist for the treatment of pain” (Bioorg Med Chem Lett, 2009).

Experiments:
[1] = molecular target: T1, P2X purinoceptor 3 (Rattus norvegicus, UniProt P49654); assay: Antagonist activity at rat P2X3 receptor expressed in CHO cells by FLIPR; type: functional, cell-based
T1 sequence (P49654 whole entry): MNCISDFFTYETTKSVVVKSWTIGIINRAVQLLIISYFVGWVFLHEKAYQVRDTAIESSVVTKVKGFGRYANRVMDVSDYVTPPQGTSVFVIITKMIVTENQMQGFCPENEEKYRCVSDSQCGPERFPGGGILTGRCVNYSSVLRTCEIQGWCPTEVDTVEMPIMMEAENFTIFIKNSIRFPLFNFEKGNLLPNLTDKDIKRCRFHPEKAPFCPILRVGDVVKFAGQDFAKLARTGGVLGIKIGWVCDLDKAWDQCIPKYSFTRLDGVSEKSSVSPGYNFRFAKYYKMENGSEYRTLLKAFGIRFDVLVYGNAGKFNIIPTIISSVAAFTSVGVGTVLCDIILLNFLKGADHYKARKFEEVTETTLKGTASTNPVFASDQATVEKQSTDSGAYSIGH

[2] = molecular target: T2, P2X2/P2X3 heterotrimeric receptor (Homo sapiens, UniProt P56373+Q9UBL9); assay: Antagonist activity at human P2X2/3 receptor expressed in 1321n1c cells by FLIPR; type: functional, cell-based
T2 sequence (Q9UBL9 whole entry): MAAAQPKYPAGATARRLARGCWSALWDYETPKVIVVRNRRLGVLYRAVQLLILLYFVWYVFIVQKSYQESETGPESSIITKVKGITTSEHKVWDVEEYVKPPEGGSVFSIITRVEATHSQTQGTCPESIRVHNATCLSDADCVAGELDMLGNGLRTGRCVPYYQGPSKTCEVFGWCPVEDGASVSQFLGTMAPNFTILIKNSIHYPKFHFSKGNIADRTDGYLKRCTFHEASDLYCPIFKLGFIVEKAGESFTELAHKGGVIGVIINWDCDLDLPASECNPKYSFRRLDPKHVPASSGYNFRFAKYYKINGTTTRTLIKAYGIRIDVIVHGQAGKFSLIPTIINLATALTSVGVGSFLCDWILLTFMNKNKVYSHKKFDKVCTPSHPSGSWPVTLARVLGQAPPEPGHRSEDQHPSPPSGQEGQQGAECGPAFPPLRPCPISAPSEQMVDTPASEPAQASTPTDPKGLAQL
T2 sequence (P56373 whole entry): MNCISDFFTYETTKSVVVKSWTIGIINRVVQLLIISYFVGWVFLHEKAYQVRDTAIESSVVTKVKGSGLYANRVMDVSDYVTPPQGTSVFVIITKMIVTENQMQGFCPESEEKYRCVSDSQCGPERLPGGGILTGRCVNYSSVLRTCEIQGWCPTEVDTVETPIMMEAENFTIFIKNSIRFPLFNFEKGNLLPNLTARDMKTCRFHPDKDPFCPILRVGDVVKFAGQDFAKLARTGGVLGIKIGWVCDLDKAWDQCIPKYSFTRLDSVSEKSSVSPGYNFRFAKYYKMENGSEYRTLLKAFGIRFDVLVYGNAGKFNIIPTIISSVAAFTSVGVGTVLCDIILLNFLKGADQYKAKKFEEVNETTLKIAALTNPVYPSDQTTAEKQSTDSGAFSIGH

[3] = Oral bioavailability in dog; type: ADME, organism-based, Canis lupus familiaris; settings: in vivo
[4] = Half life in dog; type: ADME, organism-based, Canis lupus familiaris; settings: in vivo
[5] = molecular target: P2X purinoceptor 5 (Homo sapiens, UniProt Q93086); assay: Antagonist activity at P2X5 receptor up to 10 uM; type: functional
P2X purinoceptor 5, sequence (Q93086 whole entry): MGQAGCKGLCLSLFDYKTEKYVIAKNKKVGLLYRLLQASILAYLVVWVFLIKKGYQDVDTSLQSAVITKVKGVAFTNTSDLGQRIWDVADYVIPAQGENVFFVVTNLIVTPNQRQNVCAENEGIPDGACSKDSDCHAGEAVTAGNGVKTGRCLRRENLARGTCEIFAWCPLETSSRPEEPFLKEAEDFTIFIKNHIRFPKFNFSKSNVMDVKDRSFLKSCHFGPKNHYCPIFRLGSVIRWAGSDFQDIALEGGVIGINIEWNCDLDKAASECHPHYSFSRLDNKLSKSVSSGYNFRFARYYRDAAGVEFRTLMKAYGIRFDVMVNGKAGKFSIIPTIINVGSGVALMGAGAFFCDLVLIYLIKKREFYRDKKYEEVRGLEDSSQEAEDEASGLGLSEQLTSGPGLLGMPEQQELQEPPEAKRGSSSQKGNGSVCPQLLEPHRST

[6] = Apparent permeability from apical to basolateral side of human Caco-2 cells; type: ADME, cell-based
[7] = Tmax in rat at 2 mg/kg, iv administered as single dose; type: ADME, organism-based; set-up: dose 2 mg/kg, route intravenous; settings: in vivo
[8] = Tmax in rat at 2 mg/kg, po administered as single dose; type: ADME, organism-based; set-up: dose 2 mg/kg, route oral; settings: in vivo
[9] = Cmax in rat at 2 mg/kg, iv administered as single dose; type: ADME, organism-based; set-up: dose 2 mg/kg, route intravenous; settings: in vivo
[10] = Cmax in rat at 2 mg/kg, po administered as single dose; type: ADME, organism-based; set-up: dose 2 mg/kg, route oral; settings: in vivo
[11] = AUC in rat at 2 mg/kg, iv administered as single dose; type: ADME, organism-based; set-up: dose 2 mg/kg, route intravenous; settings: plasma
[12] = AUC in rat at 2 mg/kg, po administered as single dose; type: ADME, organism-based; set-up: dose 2 mg/kg, route oral; settings: plasma
[13] = Half life in rat at 2 mg/kg, iv administered as single dose; type: ADME, organism-based; set-up: dose 2 mg/kg, route intravenous; settings: in vivo
[14] = Half life in rat at 2 mg/kg, po administered as single dose; type: ADME, organism-based; set-up: dose 2 mg/kg, route oral; settings: in vivo
[15] = system: Rattus norvegicus; assay: Clearance in rat at 2 mg/kg, iv administered as single dose; type: ADME, organism-based; set-up: dose 2 mg/kg, route intravenous; settings: in vivo
[16] = Oral bioavailability in rat at 2 mg/kg administered as single dose; type: ADME, organism-based; settings: in vivo
[17] = species: Canis familiaris; assay: Clearance in dog; type: ADME, organism-based, Canis lupus familiaris; settings: in vivo

With `COc1cc(C(C)C)c(Oc2cnc(NC3CCN(S(C)(=O)=O)CC3)nc2N)cc1I` the IC50 ([1]; read-out: pIC50 (converted)) was 100 nM and the IC50 ([2]; read-out: pIC50 (converted)) was 316 nM.
`COc1cc(C(C)C)c(Oc2cnc(NCCO)nc2N)cc1I` showed an IC50 ([2]; read-out: pIC50 (converted)) of 15.8 nM.
For `COc1cc(C(C)C)c(Oc2cnc(NCCN(C)C)nc2N)cc1I`, the IC50 ([1]; read-out: pIC50 (converted)) was 158 nM and the IC50 ([2]; read-out: pIC50 (converted)) was 251 nM.
In the case of `COc1cc(C(C)C)c(Oc2cnc(NCCN3CCOCC3)nc2N)cc1I`, the IC50 ([1]; read-out: pIC50 (converted)) is reported as 158 nM and the IC50 ([2]; read-out: pIC50 (converted)) is reported as 398 nM.
With `COc1cc(C(C)C)c(Oc2cnc(NCC(F)(F)F)nc2N)cc1I` the IC50 ([1]; read-out: pIC50 (converted)) was 79.4 nM and the IC50 ([2]; read-out: pIC50 (converted)) was 200 nM.
`COc1cc(C(C)C)c(Oc2cnc(NC(CO)CO)nc2N)cc1I` gave a bioavailability [3] of 79%, a half-life [4] of 3.88 h and an IC50 [5] greater than 10000 nM. The Papp A→B [6] was 9.43 ×10⁻⁶ cm/s, the Tmax [7] was 0.167 h and the Tmax [8] was 0.833 h. It also gave a Cmax [9] of 554 ng/mL, a Cmax [10] of 104 ng/mL and an AUC [11] of 495 ng·h/mL. The AUC [12] was 237 ng·h/mL, the half-life [13] was 1.07 h and the half-life [14] was 1.52 h. The clearance [15] was 71.9 mL/min/kg, the bioavailability [16] was 48% and the clearance [17] was 4.65 mL/min/kg.
`COc1cc(C(C)C)c(Oc2cnc(NC(C)(C)CO)nc2N)cc1I` showed an IC50 ([2]; read-out: pIC50 (converted)) of 794 nM.
`COc1cc(C(C)C)c(Oc2cnc(N(C)C)nc2N)cc1I` showed an IC50 ([1]; read-out: pIC50 (converted)) greater than 10000 nM and an IC50 ([2]; read-out: pIC50 (converted)) greater than 10000 nM.
In the case of `COc1cc(C(C)C)c(Oc2cnc(N)nc2N)cc1I`, the bioavailability [3] is reported as 72%, the half-life [4] is reported as 1.5 h and the IC50 ([1]; read-out: IC50) is reported as 13 nM. For the same compound, the IC50 ([2]; read-out: IC50) was 25 nM, the IC50 ([2]; read-out: pIC50 (converted)) was 39.8 nM and the Tmax [7] was 0.083 h. It also gave a Tmax [8] of 1.33 h, a Cmax [9] of 589 ng/mL and a Cmax [10] of 64.3 ng/mL. The AUC [11] was 628 ng·h/mL, the AUC [12] was 240 ng·h/mL and the half-life [13] was 0.94 h. The half-life [14] was 2.09 h, the clearance [15] was 52.8 mL/min/kg and the bioavailability [16] was 39%. It also gave a clearance [17] of 13 mL/min/kg.
